From US20240366555A1, “SELECTIVE MTORC2 INHIBITOR AND USES THEREOF” (ALIAD BIOPHARMA, priority 2021, published 2024)
Like-named read-outs stand apart in the source and are kept apart here.

Legend:
[1] = test system: Pten KO mice; assay: Social-open field test in Pten KO mice; format: in vivo; conditions: 5 or 10 mg/kg, FIG. 3
Procedure: As Pten KO mice, Ptenf/f_cre/cre KO mice or Ptenf/f_cre/++ Het mice (KD) were obtained by mating Pten floxed/floxed mice and CAMKII-cre mice. DMSO or athyriol was intraperitoneally injected at 5 or 10 mg/kg for 2 weeks from the age of mice of 6 weeks, and a behavioral test was performed in 7 days after administration. Pten floxed/floxed mice were used as littermates of the same age as a normal control group.
When athyriol was administered to the Pten KO mice, in order to confirm the sociability disorder was improved, a social-open field test was performed. After adapting the Pten-KO mice to the record environment for 30 minutes, they were adapted to the open filed test space made of black acrylic for 10 minutes. An unfamiliar mouse was placed in a test space in a transparent acrylic cage allowing minimal contact with the sense of smell. The movement of the test mouse was recorded for 10 minutes and analyzed with ethovision 3.1 program. Then, sociability was measured by setting 10 cm around the cylinder where the unfamiliar mouse was placed.
The social-open field test is measuring sociability as the time spent in a social interaction zone in contact with other mice in an open space, and measures the time of actually contacting also in the contact space, or sniffling toward other mice. […]

[2] = target: T1, mTORC2 located in late endosome of dendritic spines (Rattus norvegicus, UniProt P42346); assay: LocaTOR2 assay-immunofluorescent staining in primary cultured cerebral neurons (mGluR-dependent mTORC2 activation); format: cell-based; conditions: neurons pretreated with norathyriol; FIG. 11b
T1 construct: endogenous in cells; host or cells: primary cultured cerebral neurons from SD-rat E16 embryos, transduced by lentivirus only with mCherry-FRB-AKT2 and Rab7-FKBP
Source text: By combining Loca-TOR2 assay and immunofluorescence staining, changes in mTORC2 activity located in the late endosome during the induction process of long term depression (LTD) occurring in dendritic spines of primarily cultured cerebral neurons were investigated, and the inhibitory effect of norathyriol on these changes was investigated.
Specifically, mCherry-FRB-AKT2 and Rab7-FKBP were introduced using a lentiviral vector on the primarily cultured cerebral neuron on the DIV5 day, and AP21967 was treated on the DIV17 day to induce binding of FRB and FKBP, and thereby, mCherry-FRB-AKT2 was located in the late endosome. After that, DHPG, which is an mGluR agonist inducing long-term depression, was treated. […] In addition, by measuring Ser473 phosphorylation staining of mCherry-FRB-AKT2 overlapped with PSD-95 staining, which is a protein located in dendritic spines, by immunofluorescent staining, changes in mTORC2 activity located in the late endosome in the dendritic spines can be investigated. After staining using a phospho-Ser473 AKT antibody by immunofluorescent staining, the degree of AKT Ser473 phosphorylation was quantified by counting the number of each fluorescent puncta larger than 0.4 μm or more in size in the dendrites (green). In addition, the dendritic spines were observed by staining with PSD95 antibody (yellow), and the location of mCherry-FRB-AKT2 was investigated by observing mCherry fluorescence (cherry color).
SD-rat gestational age 16-day mice (Orient Bio) were purchased and the mice were anesthetized with CO2 and then embryos were taken out. Until the forebrain was isolated and the meninges were removed, it was performed by the same method as the hippocampal culture, and when the cerebrum was isolated, the dorsal cortex or ventral cortex was cut with a bended syringe needle, and it was collected in new HBSS. The tissue isolated and collected was transferred to a 15 ml tube with a Pasteur pipette, and then in order to remove the remaining meninges and blood vessels, and the like, 2 ml HBSS and 0.25% trypsin of 2 ml were added, and it was reacted in a 37° C. shaker for 10-15 minutes. The cells were settled and the supernatant was removed leaving 1-2 ml, and then trypsin was inactivated by adding DMEM comprising the equal amount of 20% FBS. After centrifugation at 700 rpm for 15 minutes, the supernatant was discarded all and the collected tissue was released, and then Neurobasal culture medium (+glutamate) of 2 ml was added, and titrated with a pipette, and the cells were isolated by changing to a pipette with a narrow end. […] The number of cells was measured with a hemocytometer, and then the cells were seeded in a coated culture dish. […]

[3] = target: mTORC2 (Homo sapiens, UniProt P42345); assay: LocaTOR2 assay in A549 cells (FRB-AKT2 Ser473 phosphorylation); format: cell-based; set-up: endogenous in cells; host or cells: A549 (transfected only with the FKBP-recruiter and the FRB-AKT2 reporter); conditions: for IC50: FIG. 9g
Source text: mTORC2 is located in the cell membrane, endosome, ER and mitochondrial membrane. mTORC2 forms an mTORC2 complex as an activated form of ras (ras-GTP) operates as a scaffold in the cell membrane, whereas it forms an mTORC2 complex as mLST8 operates as a scaffold in the endosome. By this difference, the mTORC2 inhibitory effect of norathyriol may be shown differently depending on the subcellular compartment where mTORC2 is located. In order to investigate the mTORC2 inhibitory effect of norathyriol depending on the subcellular compartment location, in vivo LocaTOR2 assay was performed (Ebner et al. (2017) J. Cell Biol. 216:343-353). After introducing FKBP-recruiter selectively located in the membrane of the subcellular compartment and FRB^T2098L-AKT2 which is an mTORC2 substrate, AP21967 was treated for 40 minutes to induce binding between the FKBP-recruiter and FRB-AKT2, and FRB-AKT2 was moved to a specific subcellular compartment. In addition, the degree of phosphorylation of Ser473 of FRB-Akt by mTORC2 located in the site thereof was investigated by immunoblot analysis.

SMILES | increase of direct counterpart searching time [1] | AKT-Ser473 phosphorylation induced by DHPG [2] | FRB-AKT2 Ser473 phosphorylation, mitochondria ([3]; A549, Bcl-XL-FKBP recruiter, FIG. 9e) | FRB-AKT2 Ser473 phosphorylation, mTORC2 located in cell membrane ([3]; A549, KRas4B^C30-FKBP recruiter, AP21967, norathyriol at 30 μM and 60 μM, FIG. 9a) | FRB-AKT2 Ser473 phosphorylation, mTORC2 located in early endosome ([3]; A549, Rab5-FKBP recruiter, FIG. 9b) | FRB-AKT2 Ser473 phosphorylation, mTORC2 located in late endosome ([3]; A549, Rab7-FKBP recruiter, FIG. 9c) | FRB-AKT2 Ser473 phosphorylation, mTORC2 located in recycling endosome ([3]; A549, Rab11-FKBP recruiter, FIG. 9d) | FRB-AKT2 Ser473 phosphorylation, ER ([3]; A549, TcRb-FKBP recruiter, FIG. 9f) | IC50 ([3]; mTORC2 located in cell membrane (plasma membrane), read-out: IC50, mTORC2, PM) | IC50 ([3]; mTORC2 located in early endosome, read-out: IC50, mTORC2, EE) | IC50 ([3]; mTORC2 located in late endosome, read-out: IC50, mTORC2, LE) | IC50 ([3]; mTORC2 located in recycling endosome, read-out: IC50, mTORC2, RE)
COc1cc(O)c2c(=O)c3cc(O)c(O)cc3oc2c1 [athyriol, 1,6,7-Trihydroxy-3-methoxy-9H-xanthen-9-on] | 6% | – | – | – | – | – | – | – | – | – | – | –
O=c1c2cc(O)c(O)cc2oc2cc(O)cc(O)c12 [norathyriol, 1,3,6,7-tetrahydroxy-9H-xanthen-9-one] | – | measured similarly to the control group level | reduced | not reduced | reduced at a significant level | reduced at a significant level | reduced at a significant level | reduced | > 60 µM | < 30 µM | < 30 µM | 40 µM
